In ChEMBL document CHEMBL1671662, “In vitro activities of telavancin and six comparator agents against anaerobic bacterial isolates” (2009):
Values after ≈ are worked out from the molar mass of the structure shown.

Assays:
Clostridium bolteae = test: Antibacterial activity against Clostridium bolteae by CLSI M11-A6 agar dilution method; format: functional; conditions: Enterocloster bolteae
Clostridioides difficile = test: Antibacterial activity against Clostridium difficile by CLSI M11-A6 agar dilution method; format: functional
Clostridium hathewayi = test: Antibacterial activity against Clostridium hathewayi by CLSI M11-A6 agar dilution method; format: functional; conditions: Hungatella hathewayi
Thomasclavelia ramosa = test: Antibacterial activity against Clostridium ramosum by CLSI M11-A6 agar dilution method; format: functional
Clostridium subterminale = test: Antibacterial activity against Clostridium subterminale by CLSI M11-A6 agar dilution method; format: functional
Clostridium disporicum = test: Antibacterial activity against Clostridium disporicum by CLSI M11-A6 agar dilution method; format: functional
Clostridium = test: Antibacterial activity against Clostridium hypermegas by CLSI M11-A6 agar dilution method; format: functional
[1] = test system: Clostridium paraputrificum; test: Antibacterial activity against Clostridium paraputrificum by CLSI M11-A6 agar dilution method; format: functional
Clostridium sporogenes = test: Antibacterial activity against Clostridium sporogenes by CLSI M11-A6 agar dilution method; format: functional
[2] = test system: Clostridium sporosphaeroides; test: Antibacterial activity against Clostridium sporosphaeroides by CLSI M11-A6 agar dilution method; format: functional; conditions: Faecalispora sporosphaeroides
Clostridium sp. = test: Antibacterial activity against Clostridium sp. by CLSI M11-A6 agar dilution method; format: functional
Actinomyces naeslundii = test: Antibacterial activity against Actinomyces naeslundii by CLSI M11-A6 agar dilution method; format: functional
[3] = test system: Bifidobacterium adolescentis; test: Antibacterial activity against Bifidobacterium adolescentis by CLSI M11-A6 agar dilution method; format: functional
[4] = Antibacterial activity against Bifidobacterium infantis by CLSI M11-A6 agar dilution method; format: functional, Bifidobacterium longum subsp. infantis; conditions: Bifidobacterium longum
[5] = test system: Bifidobacterium pseudolongum; test: Antibacterial activity against Bifidobacterium pseudolongum by CLSI M11-A6 agar dilution method; format: functional
Collinsella aerofaciens = test: Antibacterial activity against Colinsella aerofaciens by CLSI M11-A6 agar dilution method; format: functional
[6] = test system: Coprobacillus cateniformis; test: Antibacterial activity against Coprobacillus cateniformis by CLSI M11-A6 agar dilution method; format: functional
Coriobacterium = test: Antibacterial activity against […] by CLSI M11-A6 agar dilution method; format: functional
Eggerthella lenta = test: Antibacterial activity against Eggerthella lenta by CLSI M11-A6 agar dilution method; format: functional
Holdemania filiformis = test: Antibacterial activity against Holdemania filiformis by CLSI M11-A6 agar dilution method; format: functional
Ruminococcus obeum = test: Antibacterial activity against Ruminococcus obeum by CLSI M11-A6 agar dilution method; format: functional; conditions: Blautia obeum
Ruminococcus albus = test: Antibacterial activity against Ruminococcus albus by CLSI M11-A6 agar dilution method; format: functional; conditions: Hominimerdicola alba
Blautia luti = test: Antibacterial activity against Ruminococcus luti by CLSI M11-A6 agar dilution method; format: functional
Blautia producta = test: Antibacterial activity against Ruminococcus productus by CLSI M11-A6 agar dilution method; format: functional
Anaerococcus prevotii = test: Antibacterial activity against Anaerococcus prevotii by CLSI M11-A6 agar dilution method; format: functional
Finegoldia magna = test: Antibacterial activity against Finegoldia magna by CLSI M11-A6 agar dilution method; format: functional
Streptococcus anginosus = test: Antibacterial activity against Streptococcus anginosus by CLSI M11-A6 agar dilution method; format: functional
[7] = test system: Parabacteroides distasonis; test: Antibacterial activity against Parabacteroides distasonis by CLSI M11-A6 agar dilution method; format: functional
Bacteroides ovatus = test: Antibacterial activity against Bacteroides ovatus by CLSI M11-A6 agar dilution method; format: functional
Fusobacterium mortiferum = test: Antibacterial activity against Fusobacterium mortiferum by CLSI M11-A6 agar dilution method; format: functional
Fusobacterium varium = test: Antibacterial activity against Fusobacterium varium by CLSI M11-A6 agar dilution method; format: functional
Prevotella bivia = test: Antibacterial activity against Prevotella bivia by CLSI M11-A6 agar dilution method; format: functional
Prevotella denticola = test: Antibacterial activity against Prevotella P denticola by CLSI M11-A6 agar dilution method; format: functional
Prevotella intermedia = test: Antibacterial activity against Prevotella P intermedia by CLSI M11-A6 agar dilution method; format: functional
Prevotella nigrescens = test: Antibacterial activity against Prevotella nigrescens by CLSI M11-A6 agar dilution method; format: functional
Hoylesella loescheii = test: Antibacterial activity against Prevotella loescheii by CLSI M11-A6 agar dilution method; format: functional
Hoylesella oralis = test: Antibacterial activity against Prevotella oralis by CLSI M11-A6 agar dilution method; format: functional
Prevotella oris = test: Antibacterial activity against Prevotella oris by CLSI M11-A6 agar dilution method; format: functional; conditions: Segatella oris
[8] = test system: Sutterella wadsworthensis; test: Antibacterial activity against Sutterella wadsworthensis by CLSI M11-A6 agar dilution method; format: functional

CN[C@H](CC(C)C)C(=O)N[C@H]1C(=O)N[C@@H](CC(N)=O)C(=O)N[C@H]2C(=O)N[C@H]3C(=O)N[C@H](C(=O)N[C@H](C(=O)O)c4cc(O)cc(O)c4-c4cc3ccc4O)[C@H](O)c3ccc(c(Cl)c3)Oc3cc2cc(c3O[C@@H]2O[C@H](CO)[C@@H](O)[C@H](O)[C@H]2O[C@H]2C[C@](C)(N)[C@H](O)[C@H](C)O2)Oc2ccc(cc2Cl)[C@H]1O [VANCOMYCIN]
MIC50 (Clostridium bolteae): 2 µg/mL (≈ 1.38 µM) | MIC90 (Clostridium bolteae): 2 µg/mL (≈ 1.38 µM) | MIC50 (Clostridioides difficile): 1 µg/mL (≈ 0.69 µM) | MIC90 (Clostridioides difficile): 2 µg/mL (≈ 1.38 µM) | MIC50 (Clostridium hathewayi): 1 µg/mL (≈ 0.69 µM) | MIC90 (Clostridium hathewayi): 1 µg/mL (≈ 0.69 µM) | MIC50 (Thomasclavelia ramosa): 8 µg/mL (≈ 5.52 µM) | MIC90 (Thomasclavelia ramosa): 8 µg/mL (≈ 5.52 µM) | MIC (Clostridium subterminale): 0.5 µg/mL (≈ 0.345 µM) | MIC50 (Clostridium subterminale): 0.5 µg/mL (≈ 0.345 µM) | MIC90 (Clostridium subterminale): 1 µg/mL (≈ 0.69 µM) | MIC50 (Clostridium disporicum): 1 µg/mL (≈ 0.69 µM) | MIC90 (Clostridium disporicum): 4 µg/mL (≈ 2.76 µM) | MIC50 (Clostridium): 1 µg/mL (≈ 0.69 µM) | MIC90 (Clostridium): 4 µg/mL (≈ 2.76 µM) | MIC50 [1]: 1 µg/mL (≈ 0.69 µM) | MIC90 [1]: 4 µg/mL (≈ 2.76 µM) | MIC50 (Clostridium sporogenes): 1 µg/mL (≈ 0.69 µM) | MIC90 (Clostridium sporogenes): 4 µg/mL (≈ 2.76 µM) | MIC50 [2]: 1 µg/mL (≈ 0.69 µM) | MIC90 [2]: 4 µg/mL (≈ 2.76 µM) | MIC50 (Clostridium sp.): 1 µg/mL (≈ 0.69 µM) | MIC90 (Clostridium sp.): 4 µg/mL (≈ 2.76 µM) | MIC50 (Actinomyces naeslundii): 0.5 µg/mL (≈ 0.345 µM) | MIC90 (Actinomyces naeslundii): 4 µg/mL (≈ 2.76 µM) | MIC50 [3]: 0.5 µg/mL (≈ 0.345 µM) | MIC90 [3]: 4 µg/mL (≈ 2.76 µM) | MIC50 [4]: 0.5 µg/mL (≈ 0.345 µM) | MIC90 [4]: 4 µg/mL (≈ 2.76 µM) | MIC50 [5]: 0.5 µg/mL (≈ 0.345 µM) | MIC90 [5]: 4 µg/mL (≈ 2.76 µM) | MIC50 (Collinsella aerofaciens): 0.5 µg/mL (≈ 0.345 µM) | MIC90 (Collinsella aerofaciens): 4 µg/mL (≈ 2.76 µM) | MIC50 [6]: 0.5 µg/mL (≈ 0.345 µM) | MIC90 [6]: 4 µg/mL (≈ 2.76 µM) | MIC50 (Coriobacterium): 0.5 µg/mL (≈ 0.345 µM) | MIC90 (Coriobacterium): 4 µg/mL (≈ 2.76 µM) | MIC50 (Eggerthella lenta): 0.5 µg/mL (≈ 0.345 µM) | MIC90 (Eggerthella lenta): 4 µg/mL (≈ 2.76 µM) | MIC50 (Holdemania filiformis): 0.5 µg/mL (≈ 0.345 µM) | MIC90 (Holdemania filiformis): 4 µg/mL (≈ 2.76 µM) | MIC50 (Ruminococcus obeum): 0.5 µg/mL (≈ 0.345 µM) | MIC90 (Ruminococcus obeum): 0.5 µg/mL (≈ 0.345 µM) | MIC50 (Ruminococcus albus): 0.5 µg/mL (≈ 0.345 µM) | MIC90 (Ruminococcus albus): 1 µg/mL (≈ 0.69 µM) | MIC50 (Blautia luti): 0.5 µg/mL (≈ 0.345 µM) | MIC90 (Blautia luti): 1 µg/mL (≈ 0.69 µM) | MIC50 (Blautia producta): 0.5 µg/mL (≈ 0.345 µM) | MIC90 (Blautia producta): 1 µg/mL (≈ 0.69 µM) | MIC50 (Anaerococcus prevotii): 0.5 µg/mL (≈ 0.345 µM) | MIC90 (Anaerococcus prevotii): 1 µg/mL (≈ 0.69 µM) | MIC50 (Finegoldia magna): 0.5 µg/mL (≈ 0.345 µM) | MIC90 (Finegoldia magna): 1 µg/mL (≈ 0.69 µM) | MIC50 (Streptococcus anginosus): 2 µg/mL (≈ 1.38 µM) | MIC90 (Streptococcus anginosus): 2 µg/mL (≈ 1.38 µM) | MIC50 [7]: 128 µg/mL (≈ 88.3 µM) | MIC90 [7]: 128 µg/mL (≈ 88.3 µM) | MIC50 (Bacteroides ovatus): 128 µg/mL (≈ 88.3 µM) | MIC90 (Bacteroides ovatus): 128 µg/mL (≈ 88.3 µM) | MIC (Fusobacterium mortiferum): > 128 µg/mL | MIC50 (Fusobacterium mortiferum): > 128 µg/mL | MIC90 (Fusobacterium mortiferum): > 128 µg/mL | MIC (Fusobacterium varium): > 128 µg/mL | MIC50 (Fusobacterium varium): > 128 µg/mL | MIC90 (Fusobacterium varium): > 128 µg/mL | MIC50 (Prevotella bivia): 32 µg/mL (≈ 22.1 µM) | MIC90 (Prevotella bivia): > 128 µg/mL | MIC50 (Prevotella denticola): 32 µg/mL (≈ 22.1 µM) | MIC90 (Prevotella denticola): > 128 µg/mL | MIC50 (Prevotella intermedia): 32 µg/mL (≈ 22.1 µM) | MIC90 (Prevotella intermedia): > 128 µg/mL | MIC50 (Prevotella nigrescens): 32 µg/mL (≈ 22.1 µM) | MIC90 (Prevotella nigrescens): > 128 µg/mL | MIC50 (Hoylesella loescheii): 32 µg/mL (≈ 22.1 µM) | MIC90 (Hoylesella loescheii): > 128 µg/mL | MIC50 (Hoylesella oralis): 32 µg/mL (≈ 22.1 µM) | MIC90 (Hoylesella oralis): > 128 µg/mL | MIC50 (Prevotella oris): 32 µg/mL (≈ 22.1 µM) | MIC90 (Prevotella oris): > 128 µg/mL | MIC [8]: > 128 µg/mL | MIC50 [8]: > 128 µg/mL | MIC90 [8]: > 128 µg/mL
